Values belong to the substance of their own block, whether it stands above or below them. Ends that are not written are not given here.
How the values were obtained:
mMC3R = mMC3R (Mus musculus, UniProt P33033); experiment: cAMP based functional bioassay; assay type: cell-based
hMC5R = hMC5R (Homo sapiens, UniProt P33032); conditions: Bednarek et al.; cited from earlier work
rat MC5R = conditions: CHO cells; cited from earlier work
mMC5R = mMC5R (Mus musculus, UniProt P41149); experiment: cAMP based functional bioassay; assay type: cell-based; conditions: mMC5R EC50, agonist; mean ± SEM; >100000 = no activity at up to 100μM
melanocortin receptors = conditions: cited from earlier work

Chain of mMC3R (P33033 whole entry): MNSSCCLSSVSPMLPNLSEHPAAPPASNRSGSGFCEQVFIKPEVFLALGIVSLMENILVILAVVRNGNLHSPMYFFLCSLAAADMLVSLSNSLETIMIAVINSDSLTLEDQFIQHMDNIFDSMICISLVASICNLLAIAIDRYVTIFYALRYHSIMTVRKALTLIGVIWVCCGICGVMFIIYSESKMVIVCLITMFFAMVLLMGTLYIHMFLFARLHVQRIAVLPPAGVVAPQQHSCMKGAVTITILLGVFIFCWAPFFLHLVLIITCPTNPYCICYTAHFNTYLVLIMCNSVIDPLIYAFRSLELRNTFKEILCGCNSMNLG
Chain of hMC5R (P33032 whole entry): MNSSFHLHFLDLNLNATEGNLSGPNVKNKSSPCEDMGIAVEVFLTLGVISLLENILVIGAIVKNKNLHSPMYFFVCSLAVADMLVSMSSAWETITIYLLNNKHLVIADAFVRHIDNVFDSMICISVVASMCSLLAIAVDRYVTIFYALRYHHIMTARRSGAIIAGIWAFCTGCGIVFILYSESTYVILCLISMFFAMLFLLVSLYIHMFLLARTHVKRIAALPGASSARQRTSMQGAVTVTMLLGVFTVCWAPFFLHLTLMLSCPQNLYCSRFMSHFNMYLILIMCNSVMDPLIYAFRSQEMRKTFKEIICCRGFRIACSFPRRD
Chain of mMC5R (P41149 whole entry): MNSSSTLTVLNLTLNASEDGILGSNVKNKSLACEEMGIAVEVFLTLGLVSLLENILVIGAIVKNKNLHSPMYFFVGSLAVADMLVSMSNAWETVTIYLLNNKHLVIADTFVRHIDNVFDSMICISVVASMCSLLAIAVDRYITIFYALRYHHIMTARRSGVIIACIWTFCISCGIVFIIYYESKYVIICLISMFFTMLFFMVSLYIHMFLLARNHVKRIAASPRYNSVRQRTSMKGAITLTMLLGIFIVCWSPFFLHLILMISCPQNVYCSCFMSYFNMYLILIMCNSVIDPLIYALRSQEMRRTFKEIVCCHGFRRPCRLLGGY

- selectivity for the mMC3R versus the mMC4R (mMC3R; from agonist EC50 values): 18 fold
Substance: YVMGHFRWDR [Peptide 6]

Substance: HS024
- functional activity at the hMC5R (hMC5R): full hMC5R agonist
- functional activity at the rat MC5R (rat MC5R): full agonist

- EC50 (mMC5R): 365 nM
- EC50 (mMC3R; mMC3R EC50, agonist, mean ± SEM, >100000 = no activity at up to 100μM): 100 nM
Substance: MGHFRWDRF [Peptide 27]

Substance: Ac-His-Phe-Arg-Trp-NH2
- stimulation of melanocortin receptors (melanocortin receptors): able to fully stimulate

From PMC2967600 (Peptides, 2010)
